Source: EP0644191A1, “PYRIDINE COMPOUND AND MEDICINAL USE THEREOF” (YOSHITOMI PHARMACEUTICAL INDUSTRIES, LTD., priority 1992, dated 1993)
Converted amounts (≈) assume the structure as drawn.

Columns and labels:
[1] = test system: Candida albicans IFO 1060; experiment: Antifungal spectrum, agar plate dilution MIC; type: cell-based; settings: IFO1060, 37°C, 8% CO₂, 3-4 days
[2] = test system: Staphylococcus aureus FDA 209P; experiment: Antibacterial spectrum, agar plate dilution MIC; type: cell-based; settings: FDA209P, 37°C, 8% CO₂, 3-4 days, read-out: MIC S. aureus
Method: (§1) The test bacterium precultured in Muller-Hinton liquid medium was diluted with the same medium to give a bacterial solution of about 10⁶ cell/ml for inoculation. The dilute bacterial solution was spot inoculated with a microplanter on an agar plate containing 2-fold dilution concentration series of the test compound and the cells were incubated at 37°C under 8% CO₂ for 3-4 days. The minimum inhibitory concentration (MIC) in respective strains was determined, based on which MIC was calculated.

[3] = test system: Pseudomonas aeruginosa IFO 12582; experiment: Antibacterial spectrum, agar plate dilution MIC; type: cell-based; settings: IFO12582, 37°C, 8% CO₂, 3-4 days, read-out: MIC P. aeruginosa
Method: as §1

[4] = test system: Escherichia coli NIHJ JC-2; experiment: Antibacterial spectrum, agar plate dilution MIC; type: cell-based; settings: NIHJJC2, 37°C, 8% CO₂, 3-4 days
Method: as §1

Helicobacter pylori = experiment: Antibacterial activity (in vitro), agar plate dilution method, clinical isolates (18 strains); type: cell-based; settings: 18 clinical isolates, 37°C, 8% CO₂, 3-4 days
Method: Antibacterial activity (in vitro) of the compound of the present invention against Helicobacter pylori was determined by the following agar plate dilution method. […] The cultures were diluted with Brucella broth to give a concentration of approximately 10⁶ cell/ml. The diluted bacterial solution was spot inoculated with a microplanter on an agar plate containing 2-fold dilution concentration series of the test compound. The cells were incubated at 37°C under 8% CO₂ for 3-4 days. The minimum inhibitory concentration (MIC) in respective strains was determined, based on which MIC₅₀ and MIC₉₀ were calculated.

[5] = Aspirin/hydrochloric acid-induced gastric ulcer in rats; type: in vivo; settings: for Ulcer index (mean±standard deviation): 30 min before aspirin 100 mg/kg, stomach removed 4 hours later, control 5.0±0.51; for Change (%): change of ulcer index versus control
Method: Male rats weighing about 200 g (16 rats per group) were fasted for 20 hours and the test solution was orally administered to the rats. Thirty minutes later, aspirin (100 mg/kg) containing 0.3N hydrochloric acid was orally administered.
Four hours later, the stomach was removed and the area which developed ulcer was examined. A square root of the total ulcer area was taken as an ulcer index.

[6] = Acute toxicity in mice, observed for 5 days; type: in vivo
From the text: As a result, no death case was found.

Row | SMILES | MIC [1] | MIC [2] | MIC [3] | MIC [4] | MIC50 (Helicobacter pylori) | MIC90 (Helicobacter pylori) | Ulcer index (mean±standard deviation) ([5]; 10 mg/kg p.o.) | Change (%) ([5]; 10 mg/kg p.o.) | Ulcer index (mean±standard deviation) ([5]; 30 mg/kg p.o.) | Change (%) ([5]; 30 mg/kg p.o.) | death ([6]; intraperitoneally 300 mg/kg) | death ([6]; orally 1000 mg/kg)
1 | Cc1c(SCCN2CCOCC2)ccnc1CSc1nc2ccccc2[nH]1 [Example 1, 2-(3-methyl-4-(2-morpholinoethylthio)-2-pyridyl)methylthio-1H-benzimidazole] | > 100 µg/mL | > 100 µg/mL | > 100 µg/mL | > 100 µg/mL | ≤ 0.006 µg/mL | 0.012 µg/mL (≈ 0.03 µM) | 3.1±0.33 | -37% | 2.3±0.49 | -55% |  | 
2 | Cc1c(SCCN2CCc3ccccc3C2)ccnc1CSc1nc2ccccc2[nH]1 [Example 2, 2-(3-methyl-4-(2-(1,2,3,4-tetrahydroisoquinolin-2-yl)ethylthio)-2-pyridyl)methylthio-1H-benzimidazole] | > 100 µg/mL | > 100 µg/mL | > 100 µg/mL | > 100 µg/mL | ≤ 0.006 µg/mL | ≤ 0.006 µg/mL |  |  |  |  | no death case | no death case
3 | Cc1c(SCCN(C)Cc2ccccc2)ccnc1CSc1nc2ccccc2[nH]1 [Example 3] | > 100 µg/mL | > 100 µg/mL | > 100 µg/mL | > 100 µg/mL | 0.025 µg/mL (≈ 0.0575 µM) | 0.05 µg/mL (≈ 0.115 µM) |  |  |  |  |  | 
4 | Cc1c(SC2CCN(Cc3ccccc3)CC2)ccnc1CSc1nc2ccccc2[nH]1 [Example 7, 2-(4-(1-benzyl-4-piperidyl)thio-3-methyl-2-pyridyl)methylthio-1H-benzimidazole] | > 100 µg/mL | > 100 µg/mL | > 100 µg/mL | > 100 µg/mL | 0.012 µg/mL (≈ 0.026 µM) | 0.025 µg/mL (≈ 0.0543 µM) |  |  |  |  |  | 

The next lines start with results.

Row | MIC [1] | MIC [2] | MIC [3] | MIC [4] | MIC50 (Helicobacter pylori) | MIC90 (Helicobacter pylori) | SMILES | Ulcer index (mean±standard deviation) ([5]; 10 mg/kg p.o.) | Change (%) ([5]; 10 mg/kg p.o.) | Ulcer index (mean±standard deviation) ([5]; 30 mg/kg p.o.) | Change (%) ([5]; 30 mg/kg p.o.) | death ([6]; intraperitoneally 300 mg/kg) | death ([6]; orally 1000 mg/kg)
5 |  |  |  |  | 0.012 µg/mL (≈ 0.0268 µM) | 0.025 µg/mL (≈ 0.0558 µM) | Cc1c(SCCN2CCc3ccccc3C2)ccnc1CSc1nc2ncccc2[nH]1 [Example 12, 2-((3-methyl-4-(2-(1,2,3,4-tetrahydroisoquinolin-2-yl)ethylthio)-2-pyridyl)methylthio)imidazo[5,4-b]pyridine] |  |  |  |  |  | 
6 | > 100 µg/mL | > 100 µg/mL | > 100 µg/mL | > 100 µg/mL | 0.025 µg/mL (≈ 0.06 µM) | 0.025 µg/mL (≈ 0.06 µM) | Cc1c(SCC[N+]2([O-])CCOCC2)ccnc1CSc1nc2ccccc2[nH]1 [Example 28, 4-(2-((2-(1H-benzimidazol-2-yl)thiomethyl-3-methyl-4-pyridyl)thio)ethyl)morpholine N-oxide] |  |  |  |  |  | 
7 |  |  |  |  | 0.05 µg/mL (≈ 0.116 µM) | 0.1 µg/mL (≈ 0.232 µM) | Cc1c(OCCN2CCc3ccccc3C2)ccnc1CSc1nc2ccccc2[nH]1 [Ref. Compound 1, 2-(3-methyl-4-(2-(1,2,3,4-tetrahydroisoquinolin-2-yl)ethoxy)-2-pyridyl)methylthio-1H-benzimidazole, reference compound] |  |  |  |  |  | 
8 |  |  |  |  | 0.1 µg/mL (≈ 0.23 µM) | 0.2 µg/mL (≈ 0.46 µM) | Cc1c(OCCN(C)Cc2ccccc2)ccnc1C[S+]([O-])c1nc2ccccc2[nH]1 (centres unmarked) [Ref. Compound 2, 2-(3-methyl-4-(2-(N-benzyl-N-methylamino)ethoxy)-2-pyridyl)methylsulfinyl-1H-benzimidazole, reference compound] |  |  |  |  |  | 
9 |  |  |  |  | 0.05 µg/mL (≈ 0.112 µM) | 0.1 µg/mL (≈ 0.224 µM) | Cc1c(OCCN2CCc3ccccc3C2)ccnc1C[S+]([O-])c1nc2ccccc2[nH]1 (centres unmarked) [Ref. Compound 3, 2-(3-methyl-4-(2-(1,2,3,4-tetrahydroisoquinolin-2-yl)ethoxy)-2-pyridyl)methylsulfinyl-1H-benzimidazole, reference compound] |  |  |  |  |  | 
